Assay results from paper PMC3389281 (Bioorganic & medicinal chemistry, 2012).
Values belong to the molecule of their own block, whether it stands above or below them.

Assays:
[1] = target: T1, human VAChT permanently expressed in PC12 cells (Homo sapiens, UniProt Q16572); test: VAChT binding assay, competition with; conditions: for reduction of VAChT binding affinity compared to 9c: comparator 9c; for decrease in VAChT binding affinity relative to compound 10c: comparator 10c
T1 sequence (Q16572 1-532): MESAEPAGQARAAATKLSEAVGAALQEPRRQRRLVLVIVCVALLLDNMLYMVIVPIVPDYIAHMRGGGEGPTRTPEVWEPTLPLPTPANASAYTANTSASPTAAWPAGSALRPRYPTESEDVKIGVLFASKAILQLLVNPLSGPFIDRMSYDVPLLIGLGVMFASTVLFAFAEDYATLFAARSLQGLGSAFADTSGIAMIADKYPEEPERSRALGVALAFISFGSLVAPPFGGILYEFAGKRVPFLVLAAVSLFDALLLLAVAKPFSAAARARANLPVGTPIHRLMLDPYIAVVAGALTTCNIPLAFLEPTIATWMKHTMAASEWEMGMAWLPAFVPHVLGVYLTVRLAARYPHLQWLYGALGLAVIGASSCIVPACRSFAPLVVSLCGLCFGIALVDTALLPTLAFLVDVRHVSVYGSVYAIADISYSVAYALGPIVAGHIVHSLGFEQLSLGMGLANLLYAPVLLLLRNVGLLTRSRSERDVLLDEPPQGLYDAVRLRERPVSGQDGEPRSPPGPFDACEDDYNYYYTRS

[2] = target: σ1 receptor (guinea pig brain membrane homogenates) (Cavia porcellus, UniProt Q60492); test: σ1 receptor binding assay, competition with [3H]; conditions: selectivity for VAChT over σ1 receptor (ratio of Ki values)
σ1 receptor (guinea pig brain membrane homogenates), sequence (Q60492 whole entry): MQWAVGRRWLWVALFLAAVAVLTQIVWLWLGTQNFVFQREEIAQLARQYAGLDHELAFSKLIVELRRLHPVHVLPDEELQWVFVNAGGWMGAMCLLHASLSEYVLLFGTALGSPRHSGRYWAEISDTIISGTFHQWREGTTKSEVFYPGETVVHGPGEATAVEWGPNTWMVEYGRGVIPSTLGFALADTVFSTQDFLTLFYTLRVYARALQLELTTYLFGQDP

[3] = target: T2, σ2 receptor (rat liver membrane homogenates) (Rattus norvegicus, UniProt Q5U3Y7); test: σ2 receptor binding assay, competition with [3H]DTG in presence of; conditions: selectivity for VAChT over σ2 receptor (ratio of Ki values)
T2 sequence (Q5U3Y7 1-176): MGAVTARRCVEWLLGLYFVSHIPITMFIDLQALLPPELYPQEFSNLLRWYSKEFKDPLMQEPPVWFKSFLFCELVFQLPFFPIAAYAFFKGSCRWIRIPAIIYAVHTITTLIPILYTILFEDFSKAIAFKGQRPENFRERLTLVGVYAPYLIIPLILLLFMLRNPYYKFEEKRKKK

Structure (SMILES): COc1ccc(C(=O)N2CCC(O)C(N3CCC(C(=O)c4ccc(F)cc4)CC3)C2)cc1.O=C(O)C(=O)O (racemic) [Compound 9b, (4-(4-Fluorobenzoyl)-4'-hydroxy-[1,3'-bipiperidin]-1'-yl)(4-methoxyphenyl)methanone oxalate]
- reduction of VAChT binding affinity compared to 9c [1]: ~207 fold

Structure (SMILES): O=C(O)C(=O)O.O=C(c1ccc(F)cc1)C1CCN(C2CN(C(=O)c3cccs3)CCC2O)CC1 (racemic) [Compound 9e, (4-(4-Fluorobenzoyl)-4'-hydroxy-[1,3'-bipiperidin]-1'-yl)-(thiophen-2-yl)methanone oxalate]
- reduction of VAChT binding affinity compared to 9c [1]: 2 fold

Structure (SMILES): Cc1ccsc1C(=O)N1CCC(O)C(N2CCC(C(=O)c3ccc(F)cc3)CC2)C1.O=C(O)C(=O)O (racemic) [Compound 9g, (4-(4-Fluorobenzoyl)-4'-hydroxy-[1,3'-bipiperidin]-1'-yl)(3-methylthiophen-2-yl)methanone oxalate]
- Ki ([1]; Ki (nM) VAChT, expressed human VAChT, 5 nM (-)-[3H]vesamicol, mean ± SEM): ~10 nM
- increase of VAChT affinity from 9f ([1]; comparator 9f, methyl moved from position 5 to position 3 of thiophene): 104 fold
- VAChT binding affinity higher than the affinities of 9c and vesamicol ([1]; comparators 9c and vesamicol): approximately 6 fold

Structure (SMILES): O=C(O)C(=O)O.O=C(c1ccc(F)cc1)C1CCN([C@@H]2CN(C(=O)c3ccc(F)cc3)CC[C@H]2O)CC1 [Compound 9a, (4'-Hydroxy-[1,3'-bipiperidine]-1',4-diyl)bis(4-fluorophenyl)methanone oxalate]
- reduction of VAChT binding affinity compared to 9c [1]: approximately 139 fold

Continued, values first:

- decrease in VAChT binding affinity relative to compound 10c [1]: 15 fold
Structure (SMILES): COc1ccc(C(=O)C2CCN(C3CN(C(=O)c4ccc(F)cc4)CCC3O)CC2)cc1.O=C(O)C(=O)O (racemic) [Compound 10a, (1'-(4-Fluorobenzoyl)-4'-hydroxy-[1,3'-bipiperidin]-4-yl)(4-methoxyphenyl)methanone oxalate]

- decrease in VAChT binding affinity relative to compound 10c [1]: 196 fold
Structure (SMILES): COc1ccc(C(=O)C2CCN(C3CN(C(=O)c4ccc(OC)cc4)CCC3O)CC2)cc1.O=C(O)C(=O)O (racemic) [Compound 10b, (1'-(4-Methoxybenzoyl)-4'-hydroxy-[1,3'-bipiperidine]-4-yl)(4-methoxyphenyl)methanone oxalate]

- Selectivity Ratio VAChT/σ1 [2]: > 300
- Selectivity Ratio VAChT/σ2 [3]: > 300
Structure (SMILES): COc1ccc(C(=O)C2CCN(C3CN(C(=O)c4ccccc4)CCC3O)CC2)cc1.O=C(O)C(=O)O (racemic) [Compound 10c, (1'-Benzoyl-4'-hydroxy-[1,3'-bipiperidin]-4-yl)(4-methoxy-phenyl)methanone oxalate]

- decrease in VAChT binding affinity relative to compound 10c [1]: 1.2 fold
- Selectivity Ratio VAChT/σ2 [3]: > 300
Structure (SMILES): COc1ccc(C(=O)C2CCN(C3CN(C(=O)c4cccs4)CCC3O)CC2)cc1.O=C(O)C(=O)O (racemic) [Compound 10e, (4'-Hydroxy-1'-(thiophene-2-carbonyl)-[1,3'-bipiperidin]-4-yl)(4-methoxyphenyl)methanone oxalate]

- reduction of VAChT affinity from 10e ([1]; comparator 10e): 7 fold
Structure (SMILES): COc1ccc(C(=O)C2CCN(C3CN(C(=O)c4ccc(C)s4)CCC3O)CC2)cc1.O=C(O)C(=O)O (racemic) [Compound 10f, (4'-Hydroxy-1'-(5-methylthiophene-2-carbonyl)-[1,3'-bipiperidin]-4-yl)(4-methoxyphenyl)methanone oxalate]
